Measured values as given in patent US20250129021A1, “SMALL MOLECULE PROTEIN SYNTHESIS MODULATORS” (Interdict Bio, Inc., priority 2023, published 2025).
pIC50: −log10 of the molar value.

What was measured:
Assay type in all cases: biochemical
MYC = test: In vitro transcription-translation (IVTT) assay, MYC reporter; details: IVTT assay, HeLa S3 lysate, MYC reporter, normalized sfGFP/mCherry ratio; half-log dilutions 30 μM-0.1 μM, 2 hrs at 30° C.
Description: (§1) All reporter constructs have been cloned into the pT7CFE1-CHis plasmid (ThermoFisher #88860) using Gibson assembly procedures (NEB #E2611L). The parental pT7CFE1-CHis plasmid contains an EMCV IRES at the 5′UTR for translation initiation, a multiple-cloning site (MCS) for gene insertion, an optional C-terminal His-epitope tag, and polyA sequence in the 3′UTR to regulate mRNA stability. All reporters are designed to be inserted at the MCS to include a red fluorescent protein (mCherry), P2A self-cleaving peptide which releases the preceding mCherry protein product, and a fusion open reading frame containing a 3×FLAG epitope, a peptide sequence of interest (TEST), and green fluorescent protein (sfGFP).
(§2) Construct Plasmid Preparation: All plasmids are isolated from MACH1 cells (ThermoFisher) grown overnight in ampicillin-containing luria broth, and purified using ZymoPure Express Plasmid Midiprep Kit (Zymo Research). Constructs are sequenced verified and diluted to a working concentration of 110 ng/μL.
(§3) HeLa S3 Lysate Preparation: HeLa S3 cell pellets are acquired from Ipracell/Ipratech (Belgium) and shipped as 4 mL frozen cell pellets on dry ice for storage at −80° C. until use. The procedure for lysate preparation is as follows. Prepare 1× Lysis Buffer, cold and stored on ice:
(§4) Each preparation takes 8 cell pellets (4 ml packed volume each, approximately 1.0×10^9 cells per pellet). Thaw cell pellets from −80° C. on ice for 90 mins. Lay pellets horizontally on top of the ice and rotate every 30 mins to ensure even thawing. Once thawed, add 4 mL of cold lysis buffer to each pellet, and using a serological pipet, gently pipet up and down to break up clumps. Incubate resuspended cells in ice for an additional 30 mins (plunged into ice). During 30 min incubation, rinse and RNase-zap (Ambion) glass dounces (use loose pestle “A”), gently dry and place on ice until needed. Prepare RNase-free Eppendorf tubes for spinning and for batch storage. Add batch labels to 1.5-1.7 mL RNase-free microcentrifuge tubes (labeling scheme below). Each batch will have an extra 1.5-1.7 mL RNase-free microcentrifuge tube for 40 μL of lysate, label the top of this tube (labeling scheme below). After 30 min incubation, transfer all 8 mL of cell pellet to dounce. Cell lysis is complete after douncing 100 times. Aliquot cell lysis into 1.5-1.7 mL temporary-microcentrifuge tubes. Place tubes in centrifuge with “fins” out, and spin at 1,200×g for 5 mins. After the first spin use a 1 mL pipet to resuspend each tube and repeat spin. This acts as an additional lysis step, is more vigorous and increases lysate yield. During second spin get liquid N2 and a fresh conical tube on ice. After spin is complete, transfer supernatant (lysate) from microcentrifuge tubes into the 50 mL conical tube and keep on ice. Repeat steps 10-14 for all other cell pellets until completed. Once all cell lysate has been transferred to the 50 mL conical tube pipet to mix so the solution is homogenous. Transfer 1 mL of lysate into batch-labeled microcentrifuge tubes and flash freeze in liquid nitrogen. Be sure to pipet up and down to mix throughout transfer step. Place all tubes in the […] for long-term storage.
(§5) In vitro transcription-translation assay setup: Each assay includes a master mix containing lysate and shared components, a 96-well plate containing compound titrations for testing, a 96-well DNA plate with reporter constructs to be tested, 96-well skirted PCR plates, and 96-well flat-bottom, black, fluorescent assay plates. […]

CCND1 = test: In vitro transcription-translation (IVTT) assay, CCND1 reporter; details: IVTT, HeLa S3 lysate, 2 hrs at 30° C.
Description: as §1, §2, §3, §4, §5

MCL-1 = test: In vitro transcription-translation (IVTT) assay, MCL-1 reporter; details: IVTT, HeLa S3 lysate, 2 hrs at 30° C.; read-out: MCL1 IC50
Description: as §1, §2, §3, §4, §5

CCNTB1 = test: In vitro transcription-translation (IVTT) assay, CCNTB1 reporter; details: HeLa S3 lysate, 2 hrs at 30° C.
Protocol: as §4
In vitro transcription-translation assay setup: Each assay includes a master mix containing lysate and shared components, a 96-well plate containing compound titrations for testing, a 96-well DNA plate with reporter constructs to be tested, 96-well skirted PCR plates, and 96-well flat-bottom, black, fluorescent assay plates. Reaction materials setup: (A) Master mix—15 mL conical tube (3 mL of HeLa S3 Lysate described above; 0.6 mL of ThermoFisher Accessory Proteins (#88882); 1.2 ml of ThermoFisher Reaction Mix (#88882); 0.54 mL of nuclease-free Water); (B) 96-Well Master Mix+Compound Plate (Half-log dilutions (30 μM−0.1 μM) of 4 compounds of interest are prepared in 100% DMSO); 96-Well DNA Plate (Five DNA constructs are plated into single columns within the plate. Row 1 of the column contains nuclease free H2O, all other wells contain 110 ng/μL plasmid DNA). Reactions are started by mixing 155 μL of master mix and 3.5 μL of compound serial dilutions, then 9.1 μL of master mix+compound mixture is aliquoted across 5 96-well plates. Reactions begin with final addition of 2 μL of DNA for a 11.1 μL reaction volume in each well. The entire plate is sealed, and incubated for 2 hrs at 30° C. After 2 hrs, quench the assay using 45 μL of PBS, and transfer 50 μL to a flat-bottom black microplate Quantify the sfGFP and mCherry signals from each well on each plate, taking 3 reads of each plate, and perform data analysis below.
In vitro transcription-translation assay data analysis: Each plate is read three times in channels for both sfGFP and mCherry signals. The average signal across these 3 reads is then calculated for further analysis. Control wells containing no DNA reporter are subtracted from reporter wells in the same column to remove auto-fluorescence of the lysate. Then, the ratio of sfGFP/mCherry is calculated per well, and these ratios are averaged across the triplicate experiments on the same plate. Finally, the ratio of each titration concentration is normalized to the no drug control to create the normalized stalling metric. […]

SMILES	pIC50 (MYC)	pIC50 (CCND1)	pIC50 (MCL-1)	pIC50 (CCNTB1)
O=C(NCc1cccc(F)c1)O[C@@H]1[C@@H](O)CN[C@@H]1Cc1ccc(F)cc1 [V190506, (2R,3S,4S)-2-[(4-fluorophenyl)methyl]-4-hydroxypyrrolidin-3-yl N-[(3-fluorophenyl)methyl]carbamate]	> 5.00	4.70 to 5.00	> 5.00	> 5.00
COc1ccc(C[C@H]2NC[C@H](O)[C@H]2OC(=O)NCc2ccc(F)c(F)c2)cc1 [V190408, (2R,3S,4S)-4-hydroxy-2-[(4-methoxyphenyl)methyl]pyrrolidin-3-yl N-[(3,4-difluorophenyl)methyl]carbamate]	> 5.00	> 5.00	> 5.00	> 5.00
COc1ccc(C[C@H]2NC[C@H](O)[C@H]2OC(=O)NCc2cnsc2)cc1 [V188384, (2R,3S,4S)-4-hydroxy-2-[(4-methoxyphenyl)methyl]pyrrolidin-3-yl N-(1,2-thiazol-4-ylmethyl)carbamate]	> 5.00	> 5.00	> 5.00	> 5.00
Cn1cc(-c2ccc(C[C@H]3NC[C@H](O)[C@H]3OC(=O)NCc3ccccc3)cc2)nn1 [V188392, (2R,3S,4S)-4-hydroxy-2-{[4-(1-methyl-1,2,3-triazol-4-yl)phenyl]methyl}pyrrolidin-3-yl N-benzylcarbamate]	> 5.00	> 5.00	> 5.00	> 5.00
COc1ccc(C[C@H]2NC[C@H](O)[C@H]2OC(=O)NCC(F)(F)c2ccccc2)cc1 [V188165, (2R,3S,4S)-4-hydroxy-2-[(4-methoxyphenyl)methyl]pyrrolidin-3-yl N-(2,2-difluoro-2-phenylethyl)carbamate]	4.52 to 4.70	4.70 to 5.00	4.52 to 4.70	> 5.00
COc1ccc(C[C@H]2NC[C@H](O)[C@H]2OC(=O)NCc2ccc(Cn3cccn3)cc2)cc1 [V188314, (2R,3S,4S)-4-hydroxy-2-[(4-methoxyphenyl)methyl]pyrrolidin-3-yl N-{[4-(pyrazol-1-ylmethyl)phenyl]methyl}carbamate]	> 5.00	> 5.00	> 5.00	> 5.00
COc1ccc(C[C@H]2NC[C@H](O)[C@H]2OC(=O)NCc2cccc3cn[nH]c23)cc1 [V190459, (2R,3S,4S)-4-hydroxy-2-[(4-methoxyphenyl)methyl]pyrrolidin-3-yl N-(1H-indazol-7-ylmethyl)carbamate]	> 5.00	4.70 to 5.00	> 5.00	> 5.00
COc1ccc(C[C@H]2NC[C@H](O)[C@H]2OC(=O)NCc2ccc(C#N)cc2)cc1 [V188377, (2R,3S,4S)-4-hydroxy-2-[(4-methoxyphenyl)methyl]pyrrolidin-3-yl N-[(4-cyanophenyl)methyl]carbamate]	> 5.00	> 5.00	> 5.00	> 5.00
COc1ccc(C[C@H]2NC[C@H](O)[C@H]2OC(=O)NCc2ccc(CN)cc2)cc1 [V188322, (2R,3S,4S)-4-hydroxy-2-[(4-methoxyphenyl)methyl]pyrrolidin-3-yl N-{[4-(aminomethyl)phenyl]methyl}carbamate]	> 5.00	> 5.00	> 5.00	> 5.00
COc1ccc(C[C@H]2NC[C@H](O)[C@H]2OC(=O)NCc2ccc(NS(C)(=O)=O)cc2)cc1 [V191955, (2R,3S,4S)-4-hydroxy-2-[(4-methoxyphenyl)methyl]pyrrolidin-3-yl N-[(4-methanesulfonamidophenyl)methyl]carbamate]	> 5.00	> 5.00	> 5.00	> 5.00
COc1ccc(C[C@H]2NC[C@H](O)[C@H]2OC(=O)NCC[C@@H]2CCCCN2)cc1 [V191902, (2R,3S,4S)-4-hydroxy-2-[(4-methoxyphenyl)methyl]pyrrolidin-3-yl N-{2-[(2S)-piperidin-2-yl]ethyl}carbamate]	4.70 to 5.00	< 4.52	< 4.52	4.70 to 5.00
COc1ccc(C[C@H]2NC[C@H](O)[C@H]2OC(=O)NCc2cccc(C(F)F)c2)cc1 [V191954, (2R,3S,4S)-4-hydroxy-2-[(4-methoxyphenyl)methyl]pyrrolidin-3-yl N-{[3-(difluoromethyl)phenyl]methyl}carbamate]	> 5.00	> 5.00	> 5.00	> 5.00
COc1ccc(C[C@H]2NC[C@H](O)[C@H]2OC(=O)NCc2ccc(C3CC3)cc2)cc1 [V188321, (2R,3S,4S)-4-hydroxy-2-[(4-methoxyphenyl)methyl]pyrrolidin-3-yl N-[(4-cyclopropylphenyl)methyl]carbamate]	< 4.52	< 4.52	4.70 to 5.00	4.70 to 5.00
COc1ccc(C[C@H]2NC[C@H](O)[C@H]2OC(=O)NCc2ccnc(F)c2)cc1 [V190522, (2R,3S,4S)-4-hydroxy-2-[(4-methoxyphenyl)methyl]pyrrolidin-3-yl N-[(2-fluoropyridin-4-yl)methyl]carbamate]	> 5.00	> 5.00	> 5.00	> 5.00
O=C(NCc1cccc(F)c1)O[C@@H]1[C@@H](O)CN[C@@H]1Cc1ccc(OC(F)(F)F)cc1 [V190509, (2R,3S,4S)-4-hydroxy-2-(4-(trifluoromethoxy)benzyl)pyrrolidin-3-yl (3-fluorobenzyl)carbamate]	< 4.52	< 4.52	< 4.52	4.52 to 4.70
COc1ccc(C[C@H]2NC[C@H](O)[C@H]2OC(=O)NCCc2c(C)noc2C)cc1 [V190414, (2R,3S,4S)-4-hydroxy-2-[(4-methoxyphenyl)methyl]pyrrolidin-3-yl N-[2-(3,5-dimethyl-1,2-oxazol-4-yl)ethyl]carbamate]	< 4.52	< 4.52	< 4.52	4.52 to 4.70
COc1ccc(C[C@H]2NC[C@H](O)[C@H]2OC(=O)NCc2ccc(N)nc2)cc1 [V188316, (2R,3S,4S)-4-hydroxy-2-[(4-methoxyphenyl)methyl]pyrrolidin-3-yl N-[(6-aminopyridin-3-yl)methyl]carbamate]	> 5.00	> 5.00	> 5.00	> 5.00
COc1ccc(C[C@H]2NC[C@H](O)[C@H]2OC(=O)NC[C@H]2CCN(C)C2)cc1 [V188306]	> 5.00	> 5.00	> 5.00	> 5.00
